PubChem BioAssay (NCI)
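Interpolation was linear, between the two tested concentrations surrounding the appropriate level; five concentrations were tested over 48 hours in 96-well plates. GI50 is the concentration that inhibits growth by half. TGI is the concentration that stops growth completely.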

Columns and labels:
Test in all cases: NCI-60 cell line screen, 48 h
[1] = test system: NCI-H23 lung
[2] = test system: OVCAR-8 ovarian
[3] = test system: M14 melanoma
[4] = test system: SR leukemia
[5] = test system: HT29 colon
[6] = test system: SNB-75 CNS
[7] = test system: U251 CNS
[8] = test system: MALME-3M melanoma
[9] = test system: UO-31 renal
[10] = test system: CAKI-1 renal
[11] = test system: SW-620 colon
[12] = test system: NCI/ADR-RES ovarian
[13] = test system: SF-295 CNS
[14] = test system: HL-60(TB) leukemia
[15] = test system: TK-10 renal
[16] = test system: PC-3 prostate
[17] = test system: SK-MEL-5 melanoma
[18] = test system: SK-MEL-28 melanoma
[19] = test system: RXF 393 renal
[20] = test system: HCC-2998 colon
[21] = test system: MDA-MB-435
[22] = test system: HOP-92 NSCLC
[23] = test system: UACC-62 melanoma
[24] = test system: SK-OV-3 ovarian
[25] = test system: OVCAR-5 ovarian
[26] = test system: COLO 205 colon
[27] = test system: NCI-H522 lung
[28] = test system: UACC-257 melanoma
[29] = test system: MDA-MB-231 breast

`O=C(NCCCNC(=O)OCc1ccc2c(Br)cc(Br)c(O)c2n1)OCc1ccc2c(Br)cc(Br)c(O)c2n1` was tested, and the GI50 [1] was > 100 µM, the TGI [1] was > 100 µM and the GI50 [2] was > 100 µM. For the same molecule, the TGI [2] was > 100 µM, the GI50 [3] was > 100 µM and the TGI [3] was > 100 µM. For the same molecule, the GI50 [4] was > 100 µM, the TGI [4] was > 100 µM and the GI50 [5] was > 100 µM. For the same molecule, the TGI [5] was > 100 µM, the GI50 [6] was > 100 µM and the TGI [6] was > 100 µM. For the same molecule, the GI50 [7] was > 100 µM, the TGI [7] was > 100 µM and the GI50 [8] was > 100 µM. The TGI [8] was > 100 µM, the GI50 [9] was > 100 µM and the TGI [9] was > 100 µM. For the same molecule, the GI50 [10] was > 100 µM, the TGI [10] was > 100 µM and the GI50 [11] was > 100 µM. For the same molecule, the TGI [11] was > 100 µM, the GI50 [12] was > 100 µM and the TGI [12] was > 100 µM. The GI50 [13] was > 100 µM, the TGI [13] was > 100 µM and the GI50 [14] was > 100 µM. For the same molecule, the TGI [14] was > 100 µM, the GI50 [15] was > 100 µM and the TGI [15] was > 100 µM. For the same molecule, the GI50 [16] was > 100 µM, the TGI [16] was > 100 µM and the GI50 [17] was > 100 µM. The TGI [17] was > 100 µM, the GI50 [18] was > 100 µM and the TGI [18] was > 100 µM. The GI50 [19] was > 100 µM, the TGI [19] was > 100 µM and the GI50 [20] was > 100 µM. The TGI [20] was > 100 µM, the GI50 [21] was > 100 µM and the TGI [21] was > 100 µM. For the same molecule, the GI50 [22] was > 100 µM, the TGI [22] was > 100 µM and the GI50 [23] was > 100 µM. The TGI [23] was > 100 µM, the GI50 [24] was > 100 µM and the TGI [24] was > 100 µM. For the same molecule, the GI50 [25] was > 100 µM, the TGI [25] was > 100 µM and the GI50 [26] was > 100 µM. For the same molecule, the TGI [26] was > 100 µM, the GI50 [27] was > 100 µM and the TGI [27] was > 100 µM. The GI50 [28] was > 100 µM, the TGI [28] was > 100 µM and the GI50 [29] was > 100 µM. The TGI [29] was > 100 µM.
